{"source": "patent US20240245682A1", "about": "“ALPHA-V-BETA-8 INTEGRIN INHIBITORS AND USES THEREOF” (Pliant Therapeutics, Inc., priority 2022, published 2024)", "key": {"Pan02 tumors": {"tested_on": "Pan02 tumors", "assay": "Pan02 (pancreatic) syngeneic tumor model (Example B6)", "format": "in vivo, C57BL/6 mice", "protocol": "The therapeutic impact of Compound 39 of the examples in combination with anti PD-1 was studied for several […] mouse models, as shown in Table B-3. For each model, four dosing regimens were studied, using a group size of 10 mice per dosing regimen per model, and a total of 40 mice per model.\nMice were shaved and tumor cells as indicated in Table B-3 were subcutaneously implanted in a 100 μl cell suspension that was subcutaneously injected into the front/rear flank of each mouse (as indicated in Table B-3).\nThere was no dosing holiday. Dietary supplements were uniform for all animals in the same group.\nAnimals were monitored weekly for changes in tumor volume. Tumors were measured at least once a week using calipers. Tumor volume was calculated using the equation: (longest diameter*shortest diameter^2)/2. […]\nTumor tissues (50 to 80 mg) were homogenized using metal beads in pre-chilled RINO screw cap tubes, using lysis matrix (MP Lysing Matrix S [⅛″], 2 mL Tube MP Biomedical Cat #116925100) on MP Fast Prep 24 instrument. […] Hybridized reactions were read on nCounter MAX (Nanostring), and data were analyzed using nCounter software.\nTable B-5 lists the catalog numbers of the antibodies used in the immunohistochemical (IHC) studies. Quantification of staining was done using the HALO software package (Indica Labs, Albaquerque, NM)."}, "human integrin αVβ6": {"target": "human integrin αVβ6 (Homo sapiens, UniProt P06756+P18564)", "sequence (P06756 31-992 limits assumed)": "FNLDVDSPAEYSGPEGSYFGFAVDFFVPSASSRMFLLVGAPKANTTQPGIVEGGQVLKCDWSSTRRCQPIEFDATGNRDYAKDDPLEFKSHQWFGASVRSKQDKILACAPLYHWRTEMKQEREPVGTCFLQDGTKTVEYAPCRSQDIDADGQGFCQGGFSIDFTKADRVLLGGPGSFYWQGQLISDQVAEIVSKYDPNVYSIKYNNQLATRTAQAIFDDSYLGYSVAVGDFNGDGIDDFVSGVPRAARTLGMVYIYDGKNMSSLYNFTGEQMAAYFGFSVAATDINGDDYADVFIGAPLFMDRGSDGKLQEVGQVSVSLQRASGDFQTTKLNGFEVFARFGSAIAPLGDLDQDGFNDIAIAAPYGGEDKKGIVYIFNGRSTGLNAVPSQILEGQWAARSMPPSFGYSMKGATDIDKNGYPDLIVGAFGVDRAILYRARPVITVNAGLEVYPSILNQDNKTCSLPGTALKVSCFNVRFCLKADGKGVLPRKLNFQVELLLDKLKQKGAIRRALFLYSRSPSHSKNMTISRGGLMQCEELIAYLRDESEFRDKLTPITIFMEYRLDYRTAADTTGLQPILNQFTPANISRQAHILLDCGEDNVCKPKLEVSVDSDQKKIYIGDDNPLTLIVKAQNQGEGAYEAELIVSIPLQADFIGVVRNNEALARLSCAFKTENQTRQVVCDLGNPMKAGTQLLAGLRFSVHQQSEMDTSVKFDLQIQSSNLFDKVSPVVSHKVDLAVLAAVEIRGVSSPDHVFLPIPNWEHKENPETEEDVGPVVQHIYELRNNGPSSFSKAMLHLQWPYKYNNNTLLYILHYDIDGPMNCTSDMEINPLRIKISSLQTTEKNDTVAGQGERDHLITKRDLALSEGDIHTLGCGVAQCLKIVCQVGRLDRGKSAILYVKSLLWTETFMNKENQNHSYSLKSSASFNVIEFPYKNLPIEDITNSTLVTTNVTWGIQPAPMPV", "sequence (P18564 22-707 limits assumed)": "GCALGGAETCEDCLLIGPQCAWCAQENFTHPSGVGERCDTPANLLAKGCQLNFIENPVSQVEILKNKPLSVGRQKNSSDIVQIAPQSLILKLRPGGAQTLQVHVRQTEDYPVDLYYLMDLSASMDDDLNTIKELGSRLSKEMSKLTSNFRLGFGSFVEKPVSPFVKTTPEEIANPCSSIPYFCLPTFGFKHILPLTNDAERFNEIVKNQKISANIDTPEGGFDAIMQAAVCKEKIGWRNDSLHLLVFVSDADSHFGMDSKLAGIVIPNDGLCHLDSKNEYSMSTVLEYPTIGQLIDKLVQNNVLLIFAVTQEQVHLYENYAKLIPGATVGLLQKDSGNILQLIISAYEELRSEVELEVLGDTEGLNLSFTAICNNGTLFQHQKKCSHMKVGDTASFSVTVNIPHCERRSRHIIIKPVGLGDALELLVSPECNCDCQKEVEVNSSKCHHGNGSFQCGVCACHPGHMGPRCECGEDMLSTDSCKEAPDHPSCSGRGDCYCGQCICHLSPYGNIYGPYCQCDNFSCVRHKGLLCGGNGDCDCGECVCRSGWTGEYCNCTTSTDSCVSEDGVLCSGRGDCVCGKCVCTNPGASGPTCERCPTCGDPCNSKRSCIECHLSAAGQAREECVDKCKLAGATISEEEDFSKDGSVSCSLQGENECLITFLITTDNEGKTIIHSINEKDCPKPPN", "assay": "AlphaScreen proximity-based integrin binding assay with TGF-b1 LAP", "settings": "values given as ranges", "how_it_was_run": "(§1)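 Purified human integrin incubated with compound, TGF-b1 LAP, biotinylated anti-LAP antibody and acceptor beads for 2 h, then streptavidin donor beads 30 min, room temperature, in 50 mM Tris-HCl pH 7.5, 0.1% BSA, 1 mM CaCl2/MgCl2. AlphaScreen signal (680 nm excitation, 520-620 nm emission); IC50 by four-parameter fit.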"}, "human integrin αVβ1": {"target": "human integrin αVβ1 (Homo sapiens, UniProt P05556+P06756)", "sequence (P06756 31-992 limits assumed)": "as the sequence (P06756 31-992 limits assumed) above", "sequence (P05556 21-728 limits assumed)": "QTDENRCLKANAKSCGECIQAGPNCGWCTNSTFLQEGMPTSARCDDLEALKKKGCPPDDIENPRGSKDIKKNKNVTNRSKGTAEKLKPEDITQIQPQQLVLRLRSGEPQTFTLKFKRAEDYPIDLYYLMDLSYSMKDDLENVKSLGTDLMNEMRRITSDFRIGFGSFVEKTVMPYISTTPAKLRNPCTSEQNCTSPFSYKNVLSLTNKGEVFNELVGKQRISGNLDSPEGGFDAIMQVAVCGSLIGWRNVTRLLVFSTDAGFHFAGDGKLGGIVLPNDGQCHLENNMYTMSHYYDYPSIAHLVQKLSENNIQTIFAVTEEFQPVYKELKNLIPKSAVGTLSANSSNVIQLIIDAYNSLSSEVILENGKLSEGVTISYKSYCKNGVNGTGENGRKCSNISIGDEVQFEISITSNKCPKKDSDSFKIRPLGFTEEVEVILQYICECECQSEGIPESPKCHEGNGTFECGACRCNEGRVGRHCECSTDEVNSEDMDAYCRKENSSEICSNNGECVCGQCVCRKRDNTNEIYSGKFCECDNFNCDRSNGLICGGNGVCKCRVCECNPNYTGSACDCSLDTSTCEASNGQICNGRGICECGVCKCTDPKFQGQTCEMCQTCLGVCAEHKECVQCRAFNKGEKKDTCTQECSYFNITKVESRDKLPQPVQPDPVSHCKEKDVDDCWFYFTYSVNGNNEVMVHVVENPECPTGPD", "assay": "AlphaScreen proximity-based integrin binding assay with TGF-b1 LAP", "settings": "values given as ranges", "how_it_was_run": "as §1"}, "human integrin αVβ8": {"target": "human integrin αVβ8 (Homo sapiens, UniProt P06756+P26012)", "sequence (P06756 31-992 limits assumed)": "as the sequence (P06756 31-992 limits assumed) above", "sequence (P26012 43-684 limits assumed)": "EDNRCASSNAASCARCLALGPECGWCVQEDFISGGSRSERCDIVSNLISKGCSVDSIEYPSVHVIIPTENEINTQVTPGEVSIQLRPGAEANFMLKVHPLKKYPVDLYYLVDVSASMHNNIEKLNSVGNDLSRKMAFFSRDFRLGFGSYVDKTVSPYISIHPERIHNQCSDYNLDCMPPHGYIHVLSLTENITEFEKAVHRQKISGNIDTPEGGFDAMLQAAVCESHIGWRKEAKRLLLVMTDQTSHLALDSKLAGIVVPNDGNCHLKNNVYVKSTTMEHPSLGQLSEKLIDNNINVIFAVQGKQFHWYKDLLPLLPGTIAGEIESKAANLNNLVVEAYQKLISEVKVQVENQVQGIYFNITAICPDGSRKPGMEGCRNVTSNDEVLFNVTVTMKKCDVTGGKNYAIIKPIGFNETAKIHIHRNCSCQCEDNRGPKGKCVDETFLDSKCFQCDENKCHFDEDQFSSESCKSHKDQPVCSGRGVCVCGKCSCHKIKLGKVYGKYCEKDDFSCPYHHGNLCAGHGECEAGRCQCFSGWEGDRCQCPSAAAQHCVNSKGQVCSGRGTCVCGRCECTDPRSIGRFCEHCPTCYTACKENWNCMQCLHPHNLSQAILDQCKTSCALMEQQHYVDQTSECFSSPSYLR", "assay": "AlphaScreen proximity-based integrin binding assay with TGF-b1 LAP", "settings": "values given as ranges", "how_it_was_run": "as §1"}, "[1]": {"tested_on": "human breast and melanoma tumor tissues", "assay": "Ex vivo cultured human breast and melanoma tumor tissues (Example B9)", "format": "cell-based", "protocol": "Inhibition of αvβ1 and TGF-β mediated by Compound 39 of the examples was monitored via cell adhesion assays and transcriptomic analyses. αvβ1 protein expression was evaluated on human tumor tissues via immunohistochemistry using an indigenously developed anti-αvβ1 antibody. Efficacy of Compound 39 monotherapy and in combination with ICB was evaluated in syngeneic mouse models bearing EMT6 and Pan02 tumors. Animal survival, tumor growth, transcriptomic analyses, tissue fibrosis, and TILs were monitored along with circulating lymphocytes and cytokines. Tissue and circulating biomarkers of response to Compound 39 were identified. Human breast and melanoma tumor tissues were cultured ex vivo and Compound 39 activity was assessed by measuring CD8+ cytotoxic T cells and tumor apoptosis."}, "KPC tumors": {"tested_on": "KPC tumors", "assay": "Orthotopic KPC syngeneic model of PDAC (Example B11)", "experimental": "The preclinical efficacy of Compound 39 of the examples was determined in genetically-defined (LSL-KrasG12D/+; LSL-Trp53R172H/+; Pdx1-Cre (KPC), and Pan02) and genomically diverse patient-derived PDA xenograft models. Clinically relevant combinations with standard of care (SoC) chemotherapy and anti-programmed death receptor-1 antibody (anti mPD-1) were tested by monitoring tumor growth, metastasis, and animal survival. Mechanistic assessment of alterations in the tumor microenvironment (TME) was performed using transcriptomic, immunohistochemical, and immunofluorescence approaches.\nAnimals were prepared for injection using standard approved anesthesia. Mice were shaved and tumor cells 500 KPC cells were orthotopically implanted (in pancreas) in a 100 μL cell suspension.\nTumor cells were allowed to form pancreatic tumors for one week. Mice were randomized into groups and treated with indicated compounds and dose regimens according to the schema outlined in Table B-7.\nCompound 39 was administered in a solution containing 10% v/v ethanol, 70% w/v propylene glycol, and 20% v/v PBS and administered to mice via oral gavage at a dose of 300 mg/kg body weight over the duration of 22 days (for timepoint study) or 80 days (survival study). The mAbs, anti-mPD-1 and anti-αVβ8, were each administered in PBS by intraperitoneal injection at a dose of 10 mg/kg body weight twice a week (for 2 weeks).\nSince these were orthotopic tumors, tumor volume measurement was not possible. Tumor weights were determined at the end of the study. Additionally, body weight of mice and any change in behavior/appearance were monitored twice a week for any signs of discomfort/toxicity.\nThe study was terminated either at 22 days after the first dose, or at 80 days for the survival study. Mice were euthanized and tumors were collected. Half of the tumor was snap frozen in liquid nitrogen and the other half was fixed in formalin.\nFormalin (10%) fixed tissues were sent to Histowiz (a clinical research organization providing complete histology services) for paraffin embedding and sectioning. Using standard protocols optimized by Histowiz, tissue sections were stained for hematoxylin and eosin and immunostained for CD8, CD4, Cleaved caspase-3, and FoxP3, which are specific membrane markers for cytotoxic, helper, and regulator T cells, respectively. Additionally, tissues were stained with Pico Sirius Red (PSR) and second harmonic imaging (SHG) analysis was performed to evaluate stromal collagen density."}, "[2]": {"tested_on": "human breast tumor tissue", "assay": "Ex vivo cultured human breast tumor tissue, immunofluorescence of fibrotic markers", "format": "cell-based", "protocol": "Integrin αVβ1 is expressed in multiple solid tumors and drives the adhesion of cancer-associated fibroblasts (CAFs) to latent TGFβ. In human tumor tissues and in CAFs, αVβ1 protein expression was evaluated via immunohistochemistry (IHC) and custom […] assay, respectively. CAF adhesion to the TGFβ latency-associated peptide (LAP) was quantified in the presence or absence of Compound 39 in vitro by high-content microscopy imaging. The activity of Compound 39 in combination with anti-mPD-1 on fibrotic markers was evaluated in the EMT6 tumor model in vivo by gene expression analysis using the Nanostring® nCounter analysis system. Compound 39-treated human breast tumor tissue was analyzed for fibrotic marker α-smooth muscle actin (αSMA) using immunofluorescence.\nαvβ1 protein expression was evaluated in human tumor tissues via immunohistochemistry. αvβ1 protein levels in primary human CAFs isolated from pancreatic carcinoma, lung adenocarcinoma, and lung squamous cell carcinoma were quantified via custom electrochemiluminescence assay. CAF adhesion to latency associated peptide (LAP), the integrin-binding region of latent TGF-β, was quantified in the presence or absence of Compound 39 of the examples and a small molecule selective inhibitor of αvβ1 by high-content imaging in vitro. […]"}}, "note": "“Also recorded” adds a separate entry of the source.", "data": [{"smiles": "Cc1ncnc(Cl)c1C1(C(=O)N[C@@H](CCOCCCCc2ccc3c(n2)NCCC3)C(=O)O)CC1", "note": "[Compound 39, N-(1-(4-chloro-6-methylpyrimidin-5-yl)cyclopropane-1-carbonyl)-O-(4-(5,6,7,8-tetrahydro-1,8-naphthyridin-2-yl)butyl)-L-homoserine]", "values": [{"measurement": "tumor growth", "setting": "Pan02 tumors; Pan02, FIG. 16A, 41", "value": "inhibited Pan02 tumor growth"}, {"measurement": "CD8^+ T cell infiltration", "setting": "Pan02 tumors; in words, FIG. 16B, 43", "value": "increased T-cell infiltration"}, {"measurement": "IC50", "setting": "human integrin αVβ6", "value": "≥ 0.5", "unit": "µM"}, {"measurement": "IC50", "setting": "human integrin αVβ1", "value": "< 0.05", "unit": "µM"}, {"measurement": "IC50", "setting": "human integrin αVβ8", "value": "< 0.05", "unit": "µM"}, {"measurement": "cytotoxic CD8^+ T cells", "setting": "[1]", "value": "significant increase in cytotoxic CD8^+T cells"}, {"measurement": "fibrotic markers", "setting": "[1]", "value": "reduction in fibrotic markers"}, {"measurement": "mean tumor weight", "setting": "KPC tumors; 22 day timepoint, Compound 39 300 mg/kg oral gavage, mAbs 10 mg/kg i.p., FIG. 20B", "value": "0.44 ± 0.9", "unit": "g"}, {"measurement": "collagen content (PSR, SHG imaging)", "setting": "KPC tumors; FIG. 22A, 22B", "value": "significantly reduced the collagen content"}, {"measurement": "reduction in tumor weight compared with vehicle", "setting": "KPC tumors; FIG. 79", "value": 45, "unit": "%"}, {"measurement": "avg % CD8^+ T cells/ROI, invasive (leading) edge", "setting": "KPC tumors; IHC, FIG. 21A", "value": "3.06±1.05", "unit": "%"}, {"measurement": "avg % CD8^+ T cells/ROI, internal tumor", "setting": "KPC tumors; IHC, FIG. 21B", "value": "2.02±0.77", "unit": "%"}, {"measurement": "disease progression / overall survival", "setting": "KPC tumors; in words, FIG. 23, 46, 47", "value": "delayed disease progression in vivo; also recorded: improved overall survival compared to α-PD-1"}, {"measurement": "CD4^+ T cells", "setting": "KPC tumors; in words, compared to vehicle, FIG. 21E, 21F", "value": "did not show any significant difference in CD4^+ T cells"}, {"measurement": "median survival (median OS)", "setting": "KPC tumors; survival study up to 80 days, FIG. 23B, 23C", "value": 45, "unit": "days"}, {"measurement": "reduction of fibroblast activation marker αSMA", "setting": "[2]; compared to vehicle-treated tissues, FIG. 106", "value": 2.9, "unit": "fold"}, {"measurement": "expression of fibrotic markers (αSMA, FAP)", "setting": "[2]; in words", "value": "decreases; also recorded: reduced expression of fibrotic markers αSMA and FAP"}]}]}
